# Values quoted from earlier work, collected in patent US11066478B2, “Intravesical therapy for bladder cancer” (PHOTOCURE ASA, priority 2015, dated 2021).
# Assays:
# bladder cancer = details: patients who underwent cystectomy for bladder cancer, HAL-guided TUR prior to cystectomy
# NMIBC = details: patients with NMIBC
smiles,measurement,setting,value
"CCCCCCOC(=O)CCC(=O)CN [HAL, n-hexyl 5-amino-4-oxo-pentanoate]",3-year overall survival (OS),bladder cancer; comparison 56.6%,65.0%
same,3-year recurrence-free survival (RFS),bladder cancer; white light TUR alone 58.2%,69.8%
same,rate of residual tumor after TUR,NMIBC; HAL-guided TUR,reduced the rate of residual tumor
same,recurrence free survival (RFS) rates,NMIBC; HAL-guided TUR compared to white light TUR alone,superior recurrence free survival (RFS) rates
same,detection of papillary tumors and flat carcinoma-in-situ (CIS) lesions,NMIBC; HAL-guided cystoscopy and TUR versus white light alone,increased detection
